In patent US20160058712A1, “3-HYDROXYPTEROSTILBENE AND THERAPEUTIC APPLICATIONS THEREOF” (priority 2014, published 2016):

Legend:
PC-3 cells [1] = test: Detection of autophagy (GFP-LC3 autophagosomes, Beclin-1/LC3 Western blot); assay type: cell-based, human; details: PC-3, 10 μM
Method: Photographs were obtained with a fluorescence microscope (Axioscop, Carl Zeiss, Thomwood, N.Y.) equipped with a mercury 100 W lamp, 490 nm band pass blue excitation filters, a 500 nm dichroic mirror and a 515 nm long pass barrier filter. The autophagy induced by 3-HPT in PC-3 cells was also further confirmed by the Western Blotting analysis of Beclin-1, LC3-I, LC3-II, Actin protein expression in PC-3 cells after 10 μM 3-HPT treatment at different time intervals (FIG. 9). The following conclusions were drawn based on aforesaid experimental studies. • 1. […] 3-Hydroxypterostilbene induced the intrinsic apoptotic pathway and extrinsic apoptotic pathway in PC-3 cells. • 3. […] 3′-Hydroxypterostilbene has significant therapeutic potential for the treatment of human prostate cancer.

COLO 205 cells [2] = test: Flow cytometry analysis of subG1 cell population (PI staining); assay type: cell-based, human; details: 24 h
Method: For subG1 cell population analysis, COLO 205 cells (2×10^5 cells/mL) were cultured in 12 well and treatment with various concentrations of pterostilbene or 3-hydroxypterostilbene for 24 h. The cells were then harvested, washed with PBS, re-suspended in 200 μL of PBS, and fixed in 800 μL of iced 100% ethanol at […]. After being left to stand overnight, the cell pellets were collected by centrifugation, re-suspended in 1 mL of hypotonic buffer (0.5% Triton X100 in PBS and 0.5 μg/mL RNase) with PI (50 μg/mL) and incubated at 37° C. in the dark for 30 min. Fluorescence emitted from the PIDNA complex was quantitated after excitation of the fluorescent dye by FACScan cytometry (Becton Dickinson, San Jose, Calif.). […] The results indicated a higher apoptotic potential of 3-hydroxypterostilbene for COLO 205 cells.

PC-3 cells [3] = test: DNA fragmentation by agarose gel electrophoresis; assay type: cell-based, human; details: PC-3, 0-20 μM, 48 hr, 2.0% agarose gel
[4] = test system: multi drug resistant and BCR-ABL-expressing leukemia cells; details: Tolomeo et al. 2005; cited from earlier work
[5] = test system: Bcl-xL and Bax in PC-3 cells; test: Western blot of Bcl-xL and Bax expression; assay type: cell-based, human; details: PC-3, 10 μM, different time intervals
[6] = test system: caspase 3 activity in COLO 205 cells; test: Fluorogenic caspase induction assay; assay type: cell-based, human; details: COLO 205, after 24 hours of treatment
Method: The caspase 3, 8 and 9 induction activity in protein extractions of COLO 205 cells was determined by a fluorogenic assay (Promega's CaspACE Assay System, Madison, Wis.). Briefly, 50 μg of total protein, as determined by the BioRad protein assay kit (BioRad Laboratories), was incubated with 50 μM substrate Ac-Asp-Glu-Val-Asp-methylcoumaryl-7-amine (caspase3 specific substrate), Ac-Ile-Glu-Thr-Asp-AMC ([…]) (caspase 8 specific substrate), or Ac-Leu-Glu-His-Asp-AMC (Ac-LEHD-AMC) (caspase 9 specific substrate) at 30° C. for 1 h. The release of methylcoumaryl-7-amine was measured by excitation at 360 nm and emission at 460 nm using a fluorescence spectrophotometer (ECLIPSE, Varian, Palo Alto, Calif.).

COLO 205 cells [7] = test: Chloroquine (CQ) pretreatment, MTT viability and subG1 analysis; assay type: cell-based; details: COLO 205, 25 μM CQ 1 h then 50 μM for 24 h
Method: Cells were pretreated with 25 μM CQ for 1 h before treatment with 50 μM of pterostilbene or 3-hydroxypterostilbene for 24 h. Cell viability was determined by MTT assay. SubG1 cell population (%) was analyzed and quantified after Propidium iodide (PI) staining followed by flow cytometry.

COLO 205 cells [8] = test: Mitochondrial membrane potential by DiOC6 flow cytometry; assay type: cell-based, human; details: COLO 205, 50 μM, 15 min; shifted from 224
Method: (§1) For mitochondrial membrane potential and ROS production, COLO 205 cells were treated as described under Example III for 15 min, and then DiOC6 [3,3′-dihexyloxacarbocyanine iodide] (40 nM) or DCFHDA [2′,7′-dichlorodihydrofluorescein diacetate] (20 μM) was added to the medium for a further 30 min at 37° C. After washing with PBS, the fluorescence intensity was determined by FAC Scan cytometry. The DiOC6 fluorescence intensity shifted to the left from 224 to 117 and 75 in pterostilbene and 3-HPT induced apoptotic COLO 205 cells, respectively. […] The role of ROS in the induction of apoptosis is well recognized. […] The imbalance of ROS concentrations could play an important role as an early mediator in 3-HPT induced apoptosis.

[9] = test system: PC-3 (Human prostate cancer cell line); test: MTT cell viability assay, PC-3; assay type: cell-based
Method: Cell viability was assayed by 3(4,5-dimethylthiazol-2-yl)-2,5-diphenyltetrazolium bromide (MTT). Briefly. COLO 205, HCT116 and HT29 cells were plated at a density of 2×10^2 cells/mL into 96 well plates. After overnight growth, cells were treated with a series of concentrations of pterostilbene or 3-hydroxypterostilbene for 24 h. The final concentrations of DMSO in the culture medium were <0.05%. At the end of treatment, 0.2% MTT was added and cells were incubated for a further 4 h. Cell viability was determined by scanning with an ELISA reader with a 570 nm filter.
The MTT reaction explained in Para 0040 was also used to assess the cell viability of human prostate cancer cells (PC-3) in the presence of pterostilbene and 3-hydroxypterostilbene. The results (FIG. 1) are represented in Table II.

COLO 205 cells [10] = test: ROS production by DCFHDA flow cytometry; assay type: cell-based, human; details: COLO 205, 50 μM, 15 min; from 114
Method: as §1

COc1cc(/C=C/c2ccc(O)c(O)c2)cc(OC)c1 [3-hydroxypterostilbene, 3,4-dihydroxy-3′,5′-dimethoxy-trans-stilbene]
autophagy (Beclin-1, LC3 expression, autophagosome formation) (PC-3 cells [1]): induced autophagic cell death by increasing the Beclin-1, LC3 protein expression and autophagosome formation | percentage of apoptotic COLO 205 cells (subG1) (COLO 205 cells [2]; 5 μM): 7.2% | percentage of apoptotic COLO 205 cells (subG1) (COLO 205 cells [2]; 10 μM): 9.3% | percentage of apoptotic COLO 205 cells (subG1) (COLO 205 cells [2]; 25 μM): 20.1% | percentage of apoptotic COLO 205 cells (subG1) (COLO 205 cells [2]; 50 μM): 36.3% | DNA fragmentation (PC-3 cells [3]): indicated apoptotic cells death | apoptosis induction in leukemia cells [4]: effective apoptosis-inducing agents | Bax (pro-apoptotic protein) expression [5]: upregulates | Bcl-xL (anti-apoptotic protein) expression [5]: clearly down-regulates | increase in caspase 3 activity [6]: approximately 2.4 fold | cytotoxicity after CQ pretreatment (COLO 205 cells [7]): significant increase cytotoxicity | DiOC6 fluorescence intensity (mitochondrial membrane potential) (COLO 205 cells [8]): 75 | IC50 ([9]; Homo sapiens, PC-3, MTT): 5 µM | growth inhibitory effect ([9]; PC-3 human prostate cancer cells): strong growth inhibitory effect | mean DCFHDA fluorescence intensity (ROS) (COLO 205 cells [10]): 38
